Each molecule was assayed against T1, human orexin type 2 receptor (Homo sapiens, UniProt O43614) (assay: Measurement of orexin type 2 receptor agonist activity (calcium fluorescence, Fluo-4 AM, FDSS)). Conditions: test compound 3 μM; CHO cells expressing human OX2 receptor; DMSO = 0%, orexin A (human) = 100%.
T1 construct: expressed in transfected cells
T1 sequence (O43614 1-444): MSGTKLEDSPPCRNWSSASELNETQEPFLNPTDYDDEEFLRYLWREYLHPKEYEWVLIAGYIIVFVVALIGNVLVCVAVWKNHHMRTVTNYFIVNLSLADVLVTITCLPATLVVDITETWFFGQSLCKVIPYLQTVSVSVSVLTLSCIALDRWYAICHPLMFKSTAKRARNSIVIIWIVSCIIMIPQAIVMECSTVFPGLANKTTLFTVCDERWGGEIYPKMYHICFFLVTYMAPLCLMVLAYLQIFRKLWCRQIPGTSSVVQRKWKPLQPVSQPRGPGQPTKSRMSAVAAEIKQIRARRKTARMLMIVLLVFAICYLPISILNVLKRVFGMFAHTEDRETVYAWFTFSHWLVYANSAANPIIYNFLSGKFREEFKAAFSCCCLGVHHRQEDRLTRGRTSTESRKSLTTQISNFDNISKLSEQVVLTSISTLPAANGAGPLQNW
Format: cell-based
Summary of the method: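 CHO-K1 cells stably expressing human OX2R were loaded with Fluo-4 AM (30 min 37 °C, 30 min RT) in HEPES-buffered HBSS with 0.1% BSA and probenecid. Calcium fluorescence was followed on FDSS for 2 min after compound addition; activity normalised to DMSO (0%) and 10 nM orexin A (100%).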

Compound | OX2R agonist activity (3 μM, %) [%]
CO[C@H]1C[C@H](NS(C)(=O)=O)CN(C(=O)[C@@H]2C[C@H]2c2ccccc2-c2c(F)cccc2F)C1 [Example 349, N-{(3S,5S)-1-[(1R,2R)-2-(2′,6′-difluoro[1,1′-biphenyl]-2-yl)cyclopropane-1-carbonyl]-5-methoxypiperidin-3-yl}methanesulfonamide] | 97
CO[C@@H]1CCN(C(=O)[C@@H]2C[C@H]2c2ccccc2-c2c(F)cccc2F)C[C@H]1NS(C)(=O)=O [Example 350, N-{(3R,4R)-1-[(1R,2R)-2-(2′,6′-difluoro[1,1′-biphenyl]-2-yl)cyclopropane-1-carbonyl]-4-methoxypiperidin-3-yl}methanesulfonamide] | 102
CS(=O)(=O)NC[C@@H]1CCN1C(=O)[C@@H]1C[C@@]1(F)c1ccccc1-c1c(F)cccc1F [Example 352, N-({(2S)-1-[(1S,2S)-2-(2′,6′-difluoro[1,1′-biphenyl]-2-yl)-2-fluorocyclopropane-1-carbonyl]azetidin-2-yl}methyl)methanesulfonamide] | 96
CS(=O)(=O)NC[C@@H]1CCN1C(=O)[C@@H]1C[C@H]1c1ccccc1-c1c(F)cccc1F [Example 355, N-({(2S)-1-[(1R,2R)-2-(2′,6′-difluoro[1,1′-biphenyl]-2-yl)cyclopropane-1-carbonyl]azetidin-2-yl}methyl)methanesufonamide] | 94
CC1(C(=O)N2CC[C@H]2CNS(C)(=O)=O)CC1(F)c1ccccc1-c1c(F)cccc1F (stereo partly drawn) [Example 356, N-({(2S)-1-[(1R,2S)-2-(2′,6′-difluoro[1,1′-biphenyl]-2-yl)-2-fluoro-1-methylcyclopropane-1-carbonyl]azetidin-2-yl}methyl)methanesulfonamide, or N-({(2S)-1-[(1S,2R)-2-(2′,6′-difluoro[1,1′-biphenyl]-2-yl)-2-fluoro-1-methylcyclopropane-1-carbonyl]azetidin-2-yl}methyl)methanesulfonamide] | 84
C[C@@H]1CN(C(=O)[C@@H]2C[C@@]2(F)c2ccccc2-c2c(F)cccc2F)[C@H]1CNS(C)(=O)=O [Example 357, N-({(2R,3R)-1-[(1S,2S)-2-(2′,6′-difluoro[1,1′-biphenyl]-2-yl)-2-fluorocyclopropane-1-carbonyl]-3-methylazetidin-2-yl}methyl)methanesulfonamide] | 96
CS(=O)(=O)NCC12CC(C1)N(C(=O)[C@@H]1C[C@@]1(F)c1ccccc1-c1c(F)cccc1F)C2 [Example 359, N-({2-[(1S,2S)-2-(2′,6′-difluoro[1,1′-biphenyl]-2-yl)-2-fluorocyclopropane-1-carbonyl]-2-azabicyclo[2.1.1]hexan-4-yl}methyl)methanesulfonamide] | 94
CCS(=O)(=O)NC[C@@H]1[C@H](C)CN1C(=O)[C@@H]1C[C@@]1(F)c1ccccc1-c1c(F)cccc1F [Example 360, N-({(2S,3R)-1-[(1S,2S)-2-(2′,6′-difluoro[1,1′-biphenyl]-2-yl)-2-fluorocyclopropane-1-carbonyl]-3-methylazetidin-2-yl}methyl)ethanesulfonamide] | 103
CCS(=O)(=O)NC(C)[C@H]1CCN1C(=O)[C@@H]1C[C@H]1c1ccccc1-c1c(F)cccc1F (stereo partly drawn) [Example 361, N-[(1R)-1-{(2R)-1-[(1R,2R)-2-(2′,6′-difluoro[1,1′-biphenyl]-2-yl)cyclopropane-1-carbonyl]azetidin-2-yl}ethyl]ethanesulfonamide, or N-[(1S)-1-{(2R)-1-[(1R,2R)-2-(2′,6′-difluoro[1,1′-biphenyl]-2-yl)cyclopropane-1-carbonyl]azetidin-2-yl}ethyl]ethanesulfonamide] | 90
CCS(=O)(=O)NC[C@@H]1CCN1C(=O)[C@@H]1C[C@H]1c1ccccc1-c1c(F)cccc1F [Example 362, N-({(2S)-1-[(1R,2R)-2-(2′,6′-difluoro[1,1′-biphenyl]-2-yl)cyclopropane-1-carbonyl]azetidin-2-yl}methyl)ethanesulfonamide] | 89
